Data reported in patent US20240246934A1, “QUINAZOLINE-BASED COMPOUND, COMPOSITION, AND APPLICATION OF QUINAZOLINE-BASED COMPOUND” (BEIJING SCITECH-MQ PHARMACEUTICALS LIMITED, priority 2021, published 2024).
pIC50: −log10 of the molar value.

Experiments:
HER2 kinase = biological target: T1, HER2 kinase (Homo sapiens, UniProt P04626); assay: HER2 kinase assay (ULight/PT66 TR-FRET); assay type: biochemical
T1 construct: purchased Carna Biosciences 08-016
In short: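 HER2 kinase preincubated 5 min with compounds (11-point 3-fold series, duplicates), then reacted 120 min at room temperature with ATP and ULight-poly GT peptide, each prepared at 4× working concentration (40 μM ATP, 400 nM substrate, 40 nM kinase). PT66 antibody added for 60 min, TR-FRET read; IC50 from inhibition curves.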

[1] = biological target: Ba/F3 EGFR D770_N771insSVD cells (Homo sapiens, UniProt P00533, DUP768-770, cells depend on it); assay: Inhibition of cell proliferation, CTG method, Ba/F3 EGFR D770_N771insSVD; assay type: cell-based; conditions: 72 hours, read-out: Ba/F3 EGFR D770_N771insSVD IC50
Chain of Ba/F3 EGFR D770_N771insSVD cells (P00533 with tags, fused parts or gaps DUP768-770): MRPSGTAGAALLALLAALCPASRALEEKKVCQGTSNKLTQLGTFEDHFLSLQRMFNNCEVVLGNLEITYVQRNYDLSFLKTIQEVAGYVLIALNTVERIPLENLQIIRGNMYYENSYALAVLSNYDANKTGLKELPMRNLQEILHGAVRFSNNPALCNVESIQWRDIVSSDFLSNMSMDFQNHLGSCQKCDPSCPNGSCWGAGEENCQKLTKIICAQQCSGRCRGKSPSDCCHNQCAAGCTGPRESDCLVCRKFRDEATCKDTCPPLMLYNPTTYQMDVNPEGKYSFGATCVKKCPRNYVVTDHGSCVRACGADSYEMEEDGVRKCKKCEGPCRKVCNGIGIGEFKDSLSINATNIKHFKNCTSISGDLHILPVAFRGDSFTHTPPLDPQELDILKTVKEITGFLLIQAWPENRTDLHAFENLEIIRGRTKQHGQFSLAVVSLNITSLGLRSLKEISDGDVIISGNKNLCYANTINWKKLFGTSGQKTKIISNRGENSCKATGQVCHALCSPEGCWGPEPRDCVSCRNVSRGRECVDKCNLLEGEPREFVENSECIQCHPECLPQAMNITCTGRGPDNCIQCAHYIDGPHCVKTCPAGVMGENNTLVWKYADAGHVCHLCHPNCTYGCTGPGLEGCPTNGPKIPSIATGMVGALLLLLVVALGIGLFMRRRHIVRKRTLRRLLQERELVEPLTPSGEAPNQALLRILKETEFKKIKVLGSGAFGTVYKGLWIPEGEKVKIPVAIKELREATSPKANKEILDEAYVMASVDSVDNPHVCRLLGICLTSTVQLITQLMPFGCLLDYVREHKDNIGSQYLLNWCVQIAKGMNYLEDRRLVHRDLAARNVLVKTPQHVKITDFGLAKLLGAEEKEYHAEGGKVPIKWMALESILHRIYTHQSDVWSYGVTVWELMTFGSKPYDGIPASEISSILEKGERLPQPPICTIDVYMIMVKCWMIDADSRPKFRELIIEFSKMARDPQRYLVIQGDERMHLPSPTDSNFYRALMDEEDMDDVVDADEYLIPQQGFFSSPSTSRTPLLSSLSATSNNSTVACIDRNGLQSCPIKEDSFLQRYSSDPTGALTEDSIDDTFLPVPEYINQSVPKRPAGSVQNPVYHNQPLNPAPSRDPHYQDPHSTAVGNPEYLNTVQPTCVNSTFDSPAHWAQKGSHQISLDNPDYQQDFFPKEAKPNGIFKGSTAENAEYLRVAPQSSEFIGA
Source text: The present application examined the in vitro anti-proliferative activity of the compounds of the present disclosure against in vitro cultured BT474, NCI-N87, Ba/F3-EGFR-VIII and Ba/F3 HER2 A775_G776insYVMA and Ba/F3 EGFR D770_N771insSVD cell lines by CTG method.
Reagents and consumables: RPMI1640 (ThermoFisher, Cat. No. C11875500BT); fetal bovine serum (Hyclone, Cat. No. SV30087.03); 0.25% trypsin-EDTA (ThermoFisher, Cat. No. 25200-072); penicillin-streptomycin (Hyclone, Cat. No. SV30010); DMSO (Amresco, Cat. No. 0231-500ML); CTG assay kit (Promega, Cat. No. G924C); 96-well plate (Corning, Cat. No. 3603); multifunctional plate reader (Perkin Elmer, Cat. No. Envision)
Cell lines: BT474 (from the cell bank of Chinese Academy of Sciences), NCI-N87 (from ATCC), Ba/F3-EGFR-VIII, Ba/F3 HER2 A775_G776insYVMA and Ba/F3 EGFR D770_N771insSVD (all from KYinno Biotechnology (Beijing) Co., Ltd.); all of the above cells were cultured with RPMI1640 medium containing 10% fetal bovine serum, 100 U/mL penicillin, and 100 μg/mL streptomycin in the culture process.
1. The assay compound was dissolved with DMSO to form a stock solution and a gradient dilution was performed, followed by dilution with the corresponding medium to obtain a solution with 5-fold working concentration.
2. Cells in logarithmic growth phase were adjusted to specific cell densities by dilution with culture medium, and 80 μL of cell suspension was added to a 96-well plate, such that plating densities of cells of BT474, NCI-N87, Ba/F3-EGFR-VIII, Ba/F3 HER2 A775_G776insYVMA and Ba/F3 EGFR D770_N771insSVD were all 3000 cells/well. The cells of Ba/F3-EGFR-VIII, Ba/F3 HER2 A775_G776insYVMA and Ba/F3 EGFR D770_N771insSVD were used directly in the next step (treatment with compound), whereas the BT474 and NCI-N87 needed to be cultured overnight in a 37° C., 5% carbon dioxide gas incubator to adhere to the wall, and then treated with compounds.
3. 20 μL of compound solution was added to each well of the 96-well plate that had been inoculated with cells. The highest concentration of the assayed compound was 10 μM, 4-fold serial dilution, a total of 9 concentrations, and duplicate wells. A control group without compound was also set up.
4. The cells were cultured for another 72 hours, and then cell viability was detected by CTG assay kit. Signal values were read with a multifunctional plate reader (Perkin Elmer). GraphPad Prism software was used to create a dose-response curve and IC50 was calculated.

[2] = biological target: Ba/F3 HER2 A775_G776insYVMA cells (Homo sapiens, UniProt P04626, DUP772-775, cells depend on it); assay: Inhibition of cell proliferation, CTG method, Ba/F3 HER2 A775_G776insYVMA; assay type: cell-based; conditions: 72 hours, read-out: Ba/F3 HER2 A775-G776insYVMA IC50
Chain of Ba/F3 HER2 A775_G776insYVMA cells (P04626 with tags, fused parts or gaps DUP772-775): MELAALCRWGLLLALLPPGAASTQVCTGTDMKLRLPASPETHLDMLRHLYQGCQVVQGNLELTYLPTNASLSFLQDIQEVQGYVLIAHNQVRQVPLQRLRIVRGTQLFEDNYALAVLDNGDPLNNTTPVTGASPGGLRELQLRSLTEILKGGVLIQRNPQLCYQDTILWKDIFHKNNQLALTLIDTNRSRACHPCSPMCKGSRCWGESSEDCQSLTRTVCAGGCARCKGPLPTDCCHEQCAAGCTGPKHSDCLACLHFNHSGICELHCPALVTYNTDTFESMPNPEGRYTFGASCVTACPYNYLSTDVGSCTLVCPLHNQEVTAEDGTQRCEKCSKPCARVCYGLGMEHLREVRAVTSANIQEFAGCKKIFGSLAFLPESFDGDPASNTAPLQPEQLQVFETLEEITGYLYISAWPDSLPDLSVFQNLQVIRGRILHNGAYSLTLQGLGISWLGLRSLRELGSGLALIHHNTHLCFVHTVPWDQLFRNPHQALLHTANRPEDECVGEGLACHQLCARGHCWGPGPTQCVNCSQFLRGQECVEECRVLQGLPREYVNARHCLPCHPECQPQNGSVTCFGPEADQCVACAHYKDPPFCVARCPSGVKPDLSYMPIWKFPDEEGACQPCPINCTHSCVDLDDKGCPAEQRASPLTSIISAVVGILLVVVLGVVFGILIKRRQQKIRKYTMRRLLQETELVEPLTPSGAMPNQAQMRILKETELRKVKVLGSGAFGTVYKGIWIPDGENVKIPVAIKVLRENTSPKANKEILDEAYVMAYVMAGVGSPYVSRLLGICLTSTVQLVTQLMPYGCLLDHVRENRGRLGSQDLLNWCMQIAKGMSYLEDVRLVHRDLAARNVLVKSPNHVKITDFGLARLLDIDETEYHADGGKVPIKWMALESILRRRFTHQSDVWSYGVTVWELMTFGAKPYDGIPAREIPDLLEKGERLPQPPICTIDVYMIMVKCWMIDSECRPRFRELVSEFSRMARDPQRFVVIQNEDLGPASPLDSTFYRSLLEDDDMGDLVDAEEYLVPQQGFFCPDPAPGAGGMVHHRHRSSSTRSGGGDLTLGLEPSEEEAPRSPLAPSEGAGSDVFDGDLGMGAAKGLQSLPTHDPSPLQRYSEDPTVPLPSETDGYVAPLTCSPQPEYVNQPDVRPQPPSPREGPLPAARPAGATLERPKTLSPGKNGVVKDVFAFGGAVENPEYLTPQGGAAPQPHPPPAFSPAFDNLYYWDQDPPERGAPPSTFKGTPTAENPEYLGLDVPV
In short: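 Ba/F3 HER2 A775_G776insYVMA cells in RPMI1640 with 10% FBS were plated at 3000 cells/well and treated directly with compound (top 10 μM, 4-fold, 9 concentrations, duplicates).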

[3] = tested on: Ba/F3 ERBB2 A775_G776insYVMA; assay: Efficacy in nude mouse tumor-bearing model of Ba/F3 ERBB2 A775_G776insYVMA; assay type: in vivo, BALB/c nude mice; conditions: 30 mg/kg

T1 sequence (P04626 23-1255): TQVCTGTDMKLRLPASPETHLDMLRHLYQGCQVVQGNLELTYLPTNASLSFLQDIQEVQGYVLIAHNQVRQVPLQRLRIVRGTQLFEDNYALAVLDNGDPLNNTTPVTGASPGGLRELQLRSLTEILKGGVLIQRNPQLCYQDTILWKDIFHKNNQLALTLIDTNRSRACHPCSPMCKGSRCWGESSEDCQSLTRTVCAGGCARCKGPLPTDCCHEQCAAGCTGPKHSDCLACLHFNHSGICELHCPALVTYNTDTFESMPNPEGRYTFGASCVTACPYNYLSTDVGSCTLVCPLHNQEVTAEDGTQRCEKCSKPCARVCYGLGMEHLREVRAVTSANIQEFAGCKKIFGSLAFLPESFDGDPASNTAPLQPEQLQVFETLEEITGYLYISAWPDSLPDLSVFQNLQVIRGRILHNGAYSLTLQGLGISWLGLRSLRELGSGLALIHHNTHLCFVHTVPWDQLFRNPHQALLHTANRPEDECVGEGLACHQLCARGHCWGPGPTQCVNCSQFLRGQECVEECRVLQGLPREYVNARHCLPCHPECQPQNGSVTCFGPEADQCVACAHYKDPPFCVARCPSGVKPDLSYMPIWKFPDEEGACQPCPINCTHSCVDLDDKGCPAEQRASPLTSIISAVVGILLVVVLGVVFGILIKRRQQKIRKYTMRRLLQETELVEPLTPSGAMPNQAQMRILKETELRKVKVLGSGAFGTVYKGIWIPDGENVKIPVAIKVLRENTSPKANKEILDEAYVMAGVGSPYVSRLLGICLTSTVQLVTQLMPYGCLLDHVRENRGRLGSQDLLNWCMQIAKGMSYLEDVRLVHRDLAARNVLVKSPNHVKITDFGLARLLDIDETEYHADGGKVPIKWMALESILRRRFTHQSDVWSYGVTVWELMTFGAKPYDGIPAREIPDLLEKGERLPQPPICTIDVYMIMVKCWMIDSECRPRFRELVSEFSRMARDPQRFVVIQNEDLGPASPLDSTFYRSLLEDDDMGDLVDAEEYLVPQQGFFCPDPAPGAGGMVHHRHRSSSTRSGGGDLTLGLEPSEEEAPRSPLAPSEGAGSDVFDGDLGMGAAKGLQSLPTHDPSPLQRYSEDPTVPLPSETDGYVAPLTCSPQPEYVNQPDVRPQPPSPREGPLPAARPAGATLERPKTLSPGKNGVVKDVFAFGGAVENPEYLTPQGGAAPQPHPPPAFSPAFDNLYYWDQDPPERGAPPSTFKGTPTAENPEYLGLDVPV

Row | pIC50 (HER2 kinase) | GI50 [1] [nM] | GI50 [2] [nM] | Compound | T/C (%) ([3]; QD×11, PO, day 11) | T/C (%) ([3]; QD×15, PO, day 15) | T/C (%) ([3]; QD×14, PO, day 14)
1 | > 8.00 | 10 to 100 | < 1 | CCN1CCC[C@@H]1/C=C/C(=O)Nc1ccc2ncnc(Nc3ccc(OCc4ccccn4)c(Cl)c3)c2c1OC [Example 29, (R,E)-N-(4-((3-chloro-4-(pyridin-2-ylmethoxy)phenyl)amino)-5-methoxyquinazolin-6-yl)-3-(1-ethylpyrrolidin-2-yl)acrylamide] | 18.7 |  | 
2 | > 8.00 | 10 to 100 | 1 to 5 | COCCCOc1c(NC(=O)/C=C/[C@H]2CCCN2C)ccc2ncnc(Nc3ccc(OCc4ccccn4)c(Cl)c3)c12 [Example 9, (R,E)-N-(4-((3-chloro-4-(pyridin-2-ylmethoxy)phenyl)amino)-5-(3-methoxypropoxy)quinazolin-6-yl)-3-(1-methylpyrrolidin-2-yl)acrylamide] |  | 3.85 | 
3 | > 8.00 | 10 to 100 | < 1 | COc1c(NC(=O)/C=C/[C@H]2CCCN2C)ccc2ncnc(Nc3ccc(OCc4ccccn4)c(Cl)c3)c12 [Example 4, (R,E)-N-(4-((3-chloro-4-(pyridin-2-ylmethoxy)phenyl)amino)-5-methoxyquinazolin-6-yl)-3-(1-methylpyrrolidin-2-yl)acrylamide] |  |  | 2.6
